How the values were obtained:
D(1A) dopamine receptor = D(1A) dopamine receptor (Homo sapiens, UniProt P21728); assay: DRUGMATRIX: Dopamine D1 radioligand binding (ligand: [3H] SCH-23390); format: cell membranes, CHO, Membrane; settings: cho; Not Active = under 50% inhibition at 10 µM
[1] = biological target: Aldo-keto reductase family 1 member B1 (Rattus norvegicus, UniProt P07943); assay: biochemical; format: tissue-based, Lens of camera-type eye;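 also: inhibition of aldose reductase enzyme activity, measured with DL-glyceraldehyde as the substrate; in other assays of this panel Not Active means under 50% inhibition at 10 µM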
Adenosine receptor A1 = biological target: T1, Adenosine receptor A1 (Homo sapiens, UniProt P30542); format: cell membranes, CHO, Membrane; settings: cho;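 also: radioligand binding assay at the adenosine A1 receptor, with DPCPX serving as the labelled ligand; in other assays of this panel Not Active means under 50% inhibition at 10 µM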
T1 sequence (P30542 whole entry): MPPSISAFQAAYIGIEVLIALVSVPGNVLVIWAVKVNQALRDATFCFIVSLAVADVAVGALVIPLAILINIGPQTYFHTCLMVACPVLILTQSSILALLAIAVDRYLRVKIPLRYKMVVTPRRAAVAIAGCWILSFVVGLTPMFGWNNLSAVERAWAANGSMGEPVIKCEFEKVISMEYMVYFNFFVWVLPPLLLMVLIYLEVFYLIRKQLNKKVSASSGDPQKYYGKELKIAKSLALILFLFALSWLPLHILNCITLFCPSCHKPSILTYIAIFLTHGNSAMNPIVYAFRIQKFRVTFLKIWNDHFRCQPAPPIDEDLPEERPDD

[2] = biological target: T2, Alpha-2A adrenergic receptor (Homo sapiens, UniProt P08913); format: cell membranes, Sf9, Membrane; settings: sf9; also: in other assays of this panel Not Active means under 50% inhibition at 10 µM
T2 sequence (P08913 whole entry): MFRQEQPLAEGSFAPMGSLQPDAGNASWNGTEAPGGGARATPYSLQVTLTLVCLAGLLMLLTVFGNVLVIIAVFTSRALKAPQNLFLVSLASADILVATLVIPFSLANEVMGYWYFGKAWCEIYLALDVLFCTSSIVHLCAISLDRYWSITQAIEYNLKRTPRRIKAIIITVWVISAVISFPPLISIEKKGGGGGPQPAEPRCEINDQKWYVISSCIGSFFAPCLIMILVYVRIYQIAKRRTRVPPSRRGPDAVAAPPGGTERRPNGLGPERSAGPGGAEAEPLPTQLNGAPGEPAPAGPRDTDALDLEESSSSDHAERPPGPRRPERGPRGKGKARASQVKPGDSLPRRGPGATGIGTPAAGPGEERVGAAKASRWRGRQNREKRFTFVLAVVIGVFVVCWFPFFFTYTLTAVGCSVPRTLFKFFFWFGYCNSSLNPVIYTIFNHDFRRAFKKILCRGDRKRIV

[3] = DRUGMATRIX: Serotonin (5-Hydroxytryptamine) 5-HT3 radioligand binding (ligand: [3H] GR-65630); format: cell membranes, Membrane; settings: hek293; Not Active = under 50% inhibition at 10 µM
[4] = biological target: 5-hydroxytryptamine receptor 4 (Cavia porcellus, UniProt O70528); format: cell membranes, Dunkin-Hartley, Striatum, Membrane; also: in other assays of this panel Not Active means under 50% inhibition at 10 µM
5-hydroxytryptamine receptor 4, sequence (O70528 whole entry): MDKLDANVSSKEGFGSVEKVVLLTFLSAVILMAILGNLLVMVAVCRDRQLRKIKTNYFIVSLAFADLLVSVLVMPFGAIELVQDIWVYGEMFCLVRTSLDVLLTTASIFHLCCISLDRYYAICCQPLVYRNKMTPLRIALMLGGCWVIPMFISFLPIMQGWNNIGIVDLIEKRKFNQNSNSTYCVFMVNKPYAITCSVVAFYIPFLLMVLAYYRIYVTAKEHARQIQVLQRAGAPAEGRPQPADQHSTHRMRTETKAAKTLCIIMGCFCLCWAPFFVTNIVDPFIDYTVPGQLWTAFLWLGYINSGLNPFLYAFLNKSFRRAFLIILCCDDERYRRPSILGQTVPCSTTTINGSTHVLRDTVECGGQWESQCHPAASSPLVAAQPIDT

D(1A) dopamine receptor, sequence (P21728 whole entry): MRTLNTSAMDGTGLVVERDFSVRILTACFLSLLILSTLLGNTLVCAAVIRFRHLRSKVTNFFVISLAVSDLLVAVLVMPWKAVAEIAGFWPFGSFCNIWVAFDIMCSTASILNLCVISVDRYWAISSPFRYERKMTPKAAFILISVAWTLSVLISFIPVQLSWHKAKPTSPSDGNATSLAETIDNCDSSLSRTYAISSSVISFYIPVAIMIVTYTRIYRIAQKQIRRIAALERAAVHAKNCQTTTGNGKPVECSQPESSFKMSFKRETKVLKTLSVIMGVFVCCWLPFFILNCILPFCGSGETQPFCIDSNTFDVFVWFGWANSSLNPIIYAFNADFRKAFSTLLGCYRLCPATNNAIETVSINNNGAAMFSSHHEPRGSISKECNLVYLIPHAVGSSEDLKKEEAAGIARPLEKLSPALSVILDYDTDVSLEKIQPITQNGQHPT

Row | Molecule | IC50 (D(1A) dopamine receptor) | IC50 [1] | IC50 (Adenosine receptor A1) | IC50 [2] | IC50 [3] | Ki [3] | IC50 [4] | Ki (D(1A) dopamine receptor) | Ki [1] | Ki (Adenosine receptor A1) | Ki [2] | Ki [4] | IC50 ([2]; read-out: IC50) | Ki ([2]; read-out: Ki)
1 | COc1cc(C(=O)NS(=O)(=O)c2ccccc2C)ccc1Cc1cn(C)c2ccc(NC(=O)OC3CCCC3)cc12 [ZAFIRLUKAST] | Not Active | Not Active | Not Active | Not Active | Not Active | Not Active | Not Active | – | – | – | – | – | – | –
2 | Cc1cn([C@H]2C[C@H](N=[N+]=[N-])[C@@H](CO)O2)c(=O)[nH]c1=O [ZIDOVUDINE] | Not Active | Not Active | Not Active | Not Active | Not Active | Not Active | Not Active | – | – | – | – | – | – | –
3 | STANNOUS FLUORIDE | Not Active | Not Active | Not Active | Not Active | Not Active | Not Active | Not Active | Not Active | Not Active | Not Active | Not Active | Not Active | – | –
4 | THIMEROSAL | Not Active | Not Active | Not Active | – | Not Active | Not Active | Not Active | Not Active | Not Active | Not Active | – | Not Active | 532 nM | 200 nM
